Source: patent US9938222B2 (BRISTOL-MYERS SQUIBB COMPANY, priority 2014, dated 2018)

Molecular target: human GPR120 (Homo sapiens (Human), UniProt Q5NUL3)
Assay: GPR120 pERK AlphaScreen SureFire Assay (human GPR120 pERK assay)
Assay type: cell-based
Conditions: CHO cells stably transfected with short form of human GPR120
In short: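 CHOA12 cells stably expressing short-form human GPR120, serum-starved 2 h, then stimulated 7 min at 37° C with compound (33.33 μM to 0.56 nM, 11-point). Phospho-ERK1/2 read by AlphaScreen SureFire in lysates. Activation scaled between DMSO and 50 μM linolenic acid; EC50 from a 4-parameter logistic fit.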

Chain of human GPR120 (Q5NUL3 whole entry): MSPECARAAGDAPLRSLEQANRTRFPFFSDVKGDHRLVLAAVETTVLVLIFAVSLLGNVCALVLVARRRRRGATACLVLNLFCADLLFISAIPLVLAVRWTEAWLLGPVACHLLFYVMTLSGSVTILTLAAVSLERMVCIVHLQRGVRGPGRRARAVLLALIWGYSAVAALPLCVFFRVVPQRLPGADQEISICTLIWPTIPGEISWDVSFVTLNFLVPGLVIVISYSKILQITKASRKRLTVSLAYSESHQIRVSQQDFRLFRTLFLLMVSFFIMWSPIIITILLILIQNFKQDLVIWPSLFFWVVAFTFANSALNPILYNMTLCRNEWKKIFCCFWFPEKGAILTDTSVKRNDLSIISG

| SMILES | EC50 [nM] |
| --- | --- |
| CC(C)Oc1cccc(-c2ccc(CC[C@@H]3C[C@H]3C(=O)O)cc2)c1 (racemic) [Example 131, Trans-2-(2-(3′-isopropoxy-[1,1′-biphenyl]-4-yl)ethyl) cyclopropanecarboxylic acid] | 920 |
| CC(C)Oc1ccc(F)c(-c2ccc(CO[C@@H]3C[C@H]3C(=O)O)cc2)c1 (relative stereo) [Example 37, Trans-2-((2′-fluoro-5′-isopropoxy-[1,1′-biphenyl]-4-yl)methoxy)cyclopropanecarboxylic acid] | 2650 |
| O=C(O)[C@@H]1C[C@H]1COc1ccc(-c2cc(Oc3cc(F)cc(F)c3)ccc2F)cc1 (relative stereo) [Example 43, Trans-2-(((5′-(3,5-difluorophenoxy)-2′-fluoro-[1,1′-biphenyl]-4-yl)oxy)methyl)cyclopropanecarboxylic acid] | 280 |
| COc1ccc(F)c(-c2ccc(CC[C@@H]3C[C@H]3C(=O)O)cc2)c1 (relative stereo) [Example 80, Trans-2-(2-(2′-fluoro-5′-methoxy-[1,1′-biphenyl]-4-yl)ethyl) cyclopropanecarboxylic acid] | 3260 |
| O=C(O)[C@@H]1C[C@H]1COc1ccc(-c2cc(Oc3cccc(F)c3)ccc2F)cc1F (relative stereo) [Example 96, Trans-2-(((2′,3-difluoro-5′-(3-fluorophenoxy)-[1,1′-biphenyl]-4-yl)oxy)methyl) cyclopropanecarboxylic acid] | 180 |
| COc1cc(-c2cc(Oc3cccc(F)c3)ccc2F)ccc1OC[C@@H]1C[C@H]1C(=O)O (relative stereo) [Example 99, Trans-2-(((2′-fluoro-5′-(3-fluorophenoxy)-3-methoxy-[1,1′-biphenyl]-4-yl)oxy)methyl) cyclopropanecarboxylic acid] | 1140 |
| CC(C)Oc1ccc(F)c(-c2ccc(OC[C@@H]3C[C@H]3C(=O)O)cc2)c1F (relative stereo) [Example 127, Trans-2-(((2′,6′-difluoro-3′-isopropoxy-[1,1′-biphenyl]-4-yl)oxy)methyl) cyclopropanecarboxylic acid] | 940 |
| CC(C)Oc1cc(Cl)cc(-c2ccc(CC[C@@H]3C[C@H]3C(=O)O)cc2)c1 (relative stereo) [Example 132, Trans-2-(2-(3′-chloro-5′-isopropoxy-[1,1′-biphenyl]-4-yl)ethyl) cyclopropanecarboxylic acid] | 2440 |
| CC(C)Oc1ccc(Cl)c(-c2ccc(CC[C@@H]3C[C@H]3C(=O)O)cc2)c1 (relative stereo) [Example 133, Trans-2-(2-(2′-chloro-5′-isopropoxy-[1,1′-biphenyl]-4-yl)ethyl) cyclopropanecarboxylic acid] | 1860 |
| CC(C)Oc1ccc(F)c(-c2ccc(OC[C@H]3C[C@@H]3C(=O)O)cc2)c1 (single isomer, unassigned) [Example 2] | 250 |
| CC(C)Oc1ccc(F)c(-c2ccc(OC[C@@H]3C[C@H]3C(=O)O)cc2)c1 (single isomer, unassigned) [Example 3] | 470 |
| O=C(O)[C@@H]1C[C@@H]1COc1ccc(-c2cc(Oc3ccccc3)ccc2F)cc1 (single isomer, unassigned) [Example 5] | 2110 |
| O=C(O)[C@H]1C[C@H]1COc1ccc(-c2cc(Oc3ccccc3)ccc2F)cc1 (single isomer, unassigned) [Example 6] | 410 |
| CC(C)Oc1ccc(F)c(-c2ccc(OC[C@H]3C[C@H]3C(=O)O)cc2)c1 (single isomer, unassigned) [Example 7] | 2810 |
| CC(C)Oc1ccc(F)c(-c2ccc(OC[C@@H]3C[C@@H]3C(=O)O)cc2)c1 (single isomer, unassigned) [Example 8] | 2860 |
| O=C(O)[C@@H]1C[C@H]1COc1ccc(-c2cc(Oc3ccccc3)ccc2F)cc1F (single isomer, unassigned) [Example 10] | 80 |
| O=C(O)[C@H]1C[C@@H]1COc1ccc(-c2cc(Oc3ccccc3)ccc2F)cc1F (single isomer, unassigned) [Example 11] | 160 |
| CC(C)Oc1cc(Cl)cc(-c2ccc(OC[C@@H]3C[C@H]3C(=O)O)c(F)c2)c1 (single isomer, unassigned) [Example 13] | 640 |
| CC(C)Oc1cc(Cl)cc(-c2ccc(OC[C@H]3C[C@@H]3C(=O)O)c(F)c2)c1 (single isomer, unassigned) [Example 14] | 830 |
| CC(C)Oc1ccc(F)c(-c2ccc(CC[C@H]3C[C@H]3C(=O)O)cc2)c1 (single isomer, unassigned) [Example 16] | 420 |
| CC(C)Oc1ccc(F)c(-c2ccc(CC[C@@H]3C[C@@H]3C(=O)O)cc2)c1 (single isomer, unassigned) [Example 17] | 200 |
| CC1(C)Cc2cc(Cl)cc(-c3ccc(CC[C@@H]4C[C@H]4C(=O)O)cc3)c2O1 (single isomer, unassigned) [Example 26] | 1720 |
| Cc1nc(-c2ccccc2)c(-c2ccc(CC[C@@H]3C[C@H]3C(=O)O)cc2)s1 (single isomer, unassigned) [Example 27, Trans-2-(4-(2-methyl-4-phenylthiazol-5-yl)phenethyl)cyclopropanecarboxylic acid] | 1230 |

| SMILES | EC50 [nM] |
| --- | --- |
| CC(C)Oc1ccc(F)c(-c2ccc(CC[C@@H]3C[C@H]3C(=O)O)cc2)c1 (single isomer, unassigned) [Example 31] | 640 |
| CC(C)Oc1ccc(F)c(-c2ccc(CC[C@H]3C[C@@H]3C(=O)O)cc2)c1 (single isomer, unassigned) [Example 32] | 990 |
| CC(C)Oc1ccc(F)c(-c2ccc(C[C@@H]3C[C@H]3CC(=O)O)cc2)c1 (single isomer, unassigned) [Example 35, Trans-(2-((2′-fluoro-5′-isopropoxy-[1,1′-biphenyl]-4-yl)methyl)cyclopropyl)acetic acid] | 330 |
| CC(C)Oc1ccc(F)c(-c2ccc(C[C@H]3C[C@@H]3CC(=O)O)cc2)c1 (single isomer, unassigned) [Example 36, Trans-(2-((2′-fluoro-5′-isopropoxy-[1,1′-biphenyl]-4-yl)methyl)cyclopropyl)acetic acid] | 60 |
| O=C(O)C1CC1COc1ccc(-c2cc(OC(F)(F)F)ccc2F)cc1 (single isomer, unassigned) [Example 52, Trans-2-(((2′-fluoro-5′-(trifluoromethoxy)-[1,1′-biphenyl]-4-yl)oxy)methyl)cyclopropanecarboxylic acid] | 620 |
| O=C(O)C1CC1COc1ccc(-c2cc(OC(F)(F)F)ccc2F)cc1 (single isomer, unassigned) [Example 53, Trans-2-(((2′-fluoro-5′-(trifluoromethoxy)-[1,1′-biphenyl]-4-yl)oxy)methyl)cyclopropanecarboxylic acid] | 330 |
| CC(C)Oc1ccc(F)c(-c2ccc(OC[C@@H]3C[C@H]3C(=O)O)c(F)c2)c1 (single isomer, unassigned) [Example 63] | 180 |
| CC(C)Oc1ccc(F)c(-c2ccc(OC[C@H]3C[C@@H]3C(=O)O)c(F)c2)c1 (single isomer, unassigned) [Example 64] | 290 |
| CC(C)Oc1cc(F)c(F)c(-c2ccc(OC[C@@H]3C[C@H]3C(=O)O)c(F)c2)c1 (single isomer, unassigned) [Example 66] | 320 |
| Cc1ccc(Oc2ccc(F)c(-c3ccc(OCC4CC4C(=O)O)c(F)c3)c2)cc1F (single isomer, unassigned) [Example 101, Trans-2-(((2′,3-difluoro-5′-(3-fluoro-4-methylphenoxy)-[1,1′-biphenyl]-4-yl)oxy)methyl)cyclopropanecarboxylic acid] | 130 |
| Cc1ccc(Oc2ccc(F)c(-c3ccc(OCC4CC4C(=O)O)c(F)c3)c2)cc1F (single isomer, unassigned) [Example 102, Trans-2-(((2′,3-difluoro-5′-(3-fluoro-4-methylphenoxy)-[1,1′-biphenyl]-4-yl)oxy)methyl)cyclopropanecarboxylic acid] | 270 |
| O=C(O)[C@@H]1C[C@H]1COc1ccc(-c2cc(Oc3cccc(F)c3)cc(F)c2F)cc1F (single isomer, unassigned) [Example 106] | 270 |
| Cc1ccc(Oc2cc(F)c(F)c(-c3ccc(OCC4CC4C(=O)O)c(F)c3)c2)cc1F (single isomer, unassigned) [Example 108] | 360 |
| Cc1ccc(Oc2cc(F)c(F)c(-c3ccc(OCC4CC4C(=O)O)c(F)c3)c2)cc1F (single isomer, unassigned) [Example 109] | 260 |
| CC1(C)Cc2c(ccc(F)c2-c2ccc(OCC3CC3C(=O)O)cc2)O1 (stereo not shown) [Example 22, 2-((4-(5-Fluoro-2,2-dimethyl-2,3-dihydrobenzofuran-4-yl)phenoxy)methyl) cyclopropanecarboxylic acid] | 1250 |
| CC(C)Oc1cc(F)c(F)c(-c2ccc(OC[C@H]3C[C@@H]3C(=O)O)c(F)c2)c1 [Example 67, (1S,2S)-2-(((2′,3,3′-Trifluoro-5′-isopropoxy-[1,1′-biphenyl]-4-yl)oxy)methyl)cyclopropanecarboxylic acid] | 230 |
| CC[C@@H](C)Oc1ccc(F)c(-c2ccc(OCC3CC3C(=O)O)cc2)c1 (stereo partly drawn) [Example 93, Trans-2-(((5′-((R)-sec-butoxy)-2′-fluoro-[1,1′-biphenyl]-4-yl)oxy)methyl) cyclopropanecarboxylic acid] | 300 |
| O=C(O)[C@@H]1CC1COc1ccc(-c2cc(Oc3cccc(F)c3)ccc2F)cc1F (stereo partly shown) [Example 97] | 70 |
| O=C(O)[C@H]1CC1COc1ccc(-c2cc(Oc3cccc(F)c3)ccc2F)cc1F (stereo partly shown) [Example 98] | 200 |
| O=C(O)[C@@H]1CC1COc1ccc(-c2cc(Oc3cccc(F)c3)cnc2Cl)cc1 (stereo partly shown) [Example 112] | 210 |
| O=C(O)[C@H]1CC1COc1ccc(-c2cc(Oc3cccc(F)c3)cnc2Cl)cc1 (stereo partly shown) [Example 113] | 120 |
| Cc1ccc(Oc2ccc(F)c(-c3ccc(OCC4C[C@H]4C(=O)O)cc3)c2)cn1 (stereo partly shown) [Example 115] | 190 |
| Cc1ccc(Oc2ccc(F)c(-c3ccc(OCC4C[C@@H]4C(=O)O)cc3)c2)cn1 (stereo partly shown) [Example 116] | 90 |
